According to patent US20180207148A1 (priority 2015, published 2018):
Read-outs that look alike come from different tables or passages of the source.

What was measured:
[1] = Cardiovascular safety pharmacology in dogs; type: in vivo, dog; conditions: Compound A administered alone
[2] = CNS safety pharmacology study in rats; type: in vivo, rat; conditions: Compound A administered alone
[3] = human, in vivo
Protocol: (§1) A 2-part study was conducted in subjects with advanced/metastatic or recurrent gastric cancer. […] A total of 56 subjects enrolled in this study: 10 subjects with advanced malignant tumors in Part 1 and 46 subjects with advanced gastric cancer in Part 2.

clinical [4] = conditions: human, in vivo
Protocol: as §1

[5] = test system: transplanted human tumor cell lines; test: Seven in vivo experiments, human tumor transplant cell lines in mice (overall); design: species or system mouse; conditions: paclitaxel administered IP or IV, compared with oral combination
Protocol: In these studies, tumor inhibition rate (IR %) was calculated as ([1-relative tumor growth in treated group/relative tumor growth in control group]×100). Tumor regression was calculated as (Mean Tumor WeightEnd of treatment/Mean tumor WeightBeginning of treatment)×100. Therefore, a value <100% for tumor regression indicates a decrease in tumor weight over the course of the study and a value >100% indicates an increase in tumor weight. Tumor growth delay was calculated as the median number of days to reach two tumor mass doublings.

clinical [6] = conditions: human, in vivo; remark: listed apart in the source
in vivo = conditions: dog, po, 6 mg/kg, paclitaxel 6 mg/kg with Compound A 3 mg/kg, single oral dose; for AUC(0-t): AUClast; for half-life: t1/2, dogs
[7] = dogs; for CL/F: paclitaxel 6 mg/kg with Compound A 3 mg/kg, single oral dose
[8] = Paclitaxel pharmacokinetics in dogs after single oral dose with Compound A; conditions: dog, in vivo
[9] = for CL/F: po
clinical [10] = conditions: human, in vivo, oral
Source text: No premedication was allowed during this treatment sequence.

[11] = Paclitaxel pharmacokinetics in rats after single oral dose with Compound A; conditions: rat, in vivo

## COc1cc2c(cc1OC)CN(CCc1ccc(-n3nnc(-c4cc(OC)c(OC)cc4NC(=O)c4cc(=O)c5ccccc5o4)n3)cc1)CC2.CS(=O)(=O)O.O [Compound A]
[1]
  reductions in PR and QRS intervals: absence
[2]
  reductions in body temperature: absence

## CC(=O)O[C@H]1C(=O)[C@@]2(C)[C@H]([C@H](OC(=O)c3ccccc3)[C@]3(O)C[C@H](OC(=O)[C@H](O)[C@@H](NC(=O)c4ccccc4)c4ccccc4)C(C)=C1C3(C)C)[C@]1(OC(C)=O)CO[C@@H]1C[C@@H]2O [Paclitaxel, 5,20-Epoxy-1,2,4,7,10-13-hexahydroxytax-11-en-9-one-4,10-diacetate 2-benzoate 13-ester with (2R,3S)—N-benzoyl-3-phenylisoserine]
[3]
  Overall exposure on Day 2, higher than Day 1: 20-30%
Clinical [4]; oral
  half-life: 1100 to 1180 min
Clinical [4]; oral, AUC0-24, range across dose levels, Day 1
  AUC(0-t): 611 to 894 ng·h/mL
Clinical [4]; oral, AUC0-24, range across dose levels, Day 2
  AUC(0-t): 735 to 1080 ng·h/mL
Clinical [4]; oral, Cmax, range across dose levels, Day 1
  Cmax: 202 to 280 ng/mL
Clinical [4]; oral, Cmax, range across dose levels, Day 2
  Cmax: 159 to 315 ng/mL
Clinical [4]; po, 90 mg/m2, Paclitaxel Cmax, Mean (SD), 90 mg/m^2, Day 1, N 2, two consecutive daily oral doses
  Cmax: 202 ng/mL
Clinical [4]; po, 90 mg/m2, Paclitaxel Cmax, Mean (SD), 90 mg/m^2, Day 2, N 2, two consecutive daily oral doses
  Cmax: 315 ng/mL
Clinical [4]; po, 120 mg/m2, Paclitaxel Cmax, Mean (SD), 120 mg/m^2, Day 2, N 3, two consecutive daily oral doses
  Cmax: 159 ng/mL
Clinical [4]; po, 150 mg/m2
  AUC(0-t): 894 ng·h/mL
  Cmax: 251 ng/mL
Clinical [4]; po, 150 mg/m2, Paclitaxel Cmax, Mean (SD), 150 mg/m^2, Day 2, N 3, two consecutive daily oral doses
  Cmax: 276 ng/mL
[5]
  activity against transplanted human tumor cell lines: generally less active
Clinical [6]
  half-life: 1190 to 1930 min
Clinical [6]; po, 60 mg/m2
  AUC(0-inf): 727 ng·h/mL
  AUC(0-t): 584 ng·h/mL
  Cmax: 150 ng/mL
  MRT inf: 28.6 h
  Vd/F: 9130 L
  half-life: 1930 min
Clinical [6]; po, 120 mg/m2
  AUC(0-inf): 1840 ng·h/mL
  AUC(0-t): 1610 ng·h/mL
  CL renal: 50 mL/min
  MRT inf: 17 h
  Vd/F: 4040 L
  half-life: 1320 min
Clinical [6]; po, 180 mg/m2
  AUC(0-inf): 1980 ng·h/mL
  AUC(0-t): 1670 ng·h/mL
  CL renal: 30 mL/min
  Cmax: 432 ng/mL
  MRT inf: 21.9 h
  Vd/F: 6030 L
  half-life: 1460 min
Clinical [6]; po, 240 mg/m2
  AUC(0-inf): 2970 ng·h/mL
  AUC(0-t): 2550 ng·h/mL
  CL renal: 40 mL/min
  Cmax: 510 ng/mL
  MRT inf: 23.4 h
  Vd/F: 6010 L
  half-life: 1540 min
Clinical [6]; po, 300 mg/m2
  AUC(0-inf): 3480 ng·h/mL
  AUC(0-t): 3140 ng·h/mL
  CL renal: 33.3 mL/min
  Cmax: 920 ng/mL
  MRT inf: 16.2 h
  Vd/F: 4930 L
  half-life: 1270 min
Clinical [6]; po, 360 mg/m2
  AUC(0-inf): 2850 ng·h/mL
  AUC(0-t): 2510 ng·h/mL
  CL renal: 122 mL/min
  MRT inf: 18.7 h
  Vd/F: 6840 L
  half-life: 1250 min
Clinical [6]; po, 420 mg/m2
  AUC(0-inf): 3730 ng·h/mL
  AUC(0-t): 3410 ng·h/mL
  CL renal: 48.3 mL/min
  MRT inf: 14.7 h
  Vd/F: 7180 L
  half-life: 1190 min
In vivo; dogs, Fasted
  AUC(0-t): 1600 ± 416 ng·h/mL
  Tmax: 30 min
  Vd/F: 57.9 ± 17.4 L
In vivo; dogs, Fed
  AUC(0-t): 849 ± 120 ng·h/mL
  Tmax: 42 ± 12 min
  Vd/F: 88 ± 19.6 L
In vivo; Cmax, dogs, Fed
  Cmax: 299 ± 54.6 ng/mL
In vivo; Fasted
  half-life: 564 ± 18 min
In vivo; Fed
  half-life: 594 ± 162 min
[7]
  AUC, fasted group compared to fed group: ~2 fold
  Cmax, fasted group compared to fed group: ~2 fold
[7]; Fasted
  CL/F: 4.2 ± 1.2 L/h
[7]; Fed
  CL/F: 6.4 ± 1.3 L/h
[8]; 2 mg/kg
  AUC(0-t): 413 ng·h/mL
  Tmax: 30 min
[8]; 4 mg/kg
  AUC(0-t): 1330 ng·h/mL
  Tmax: 42 min
[8]; 6 mg/kg
  AUC(0-t): 2120 ng·h/mL
  Tmax: 30 min
[9]; human, in vivo
  Mean apparent clearance (CL/F): up to 244.9 L/h
[9]; human, in vivo, 60 mg/m2
  CL/F: 178.4 L/h
[9]; human, in vivo, 180 mg/m2
  CL/F: 173.4 L/h
[9]; human, in vivo, 240 mg/m2
  CL/F: 147.6 L/h
[9]; human, in vivo, 360 mg/m2
  CL/F: 228.7 L/h
[9]; human, in vivo, 420 mg/m2
  CL/F: 244.9 L/h
[9]; oral paclitaxel 60 to 420 mg/m^2 on days 1, 8 and 15 of 28-day cycle with Compound A
  MTD: not reached
[9]; orally administered in combination with Compound A, neutropenia the adverse event associated with discontinuation
  overall toxicity profile: consistent with that of paclitaxel
Clinical [10]
  bioavailability: ~13.4%
[11]; 5 mg/kg
  AUC(0-t): 333 ng·h/mL
  Cmax: 103 ng/mL
  Tmax: 0.6 h
[11]; 10 mg/kg
  AUC(0-t): 1030 ng·h/mL
  Cmax: 356 ng/mL
  Tmax: 0.7 h
[11]; 20 mg/kg
  AUC(0-t): 3010 ng·h/mL
  Cmax: 852 ng/mL
  Tmax: 1.2 h
[11]; 30 mg/kg
  AUC(0-t): 6640 ng·h/mL
  Cmax: 1760 ng/mL
  Tmax: 1.2 h
  half-life: 360 min
[11]; 40 mg/kg
  AUC(0-t): 11100 ng·h/mL
  Cmax: 2490 ng/mL
  Tmax: 1.5 h
  half-life: 330 min
[11]; 50 mg/kg
  AUC(0-t): 13100 ng·h/mL
  Cmax: 3070 ng/mL
  half-life: 318 min
